Assay results reported in BigSolDB 2.1.

Structure (SMILES): N#Cc1ccc([N+](=O)[O-])cc1
- solubility (mole fraction) (in ethanol, 278.15 K): 0.00255
- solubility (mole fraction) (in ethanol, 283.15 K): 0.00302
- solubility (mole fraction) (in ethanol, 288.15 K): 0.00376
- solubility (mole fraction) (in ethanol, 293.15 K): 0.00454
- solubility (mole fraction) (in ethanol, 298.15 K): 0.00556
- solubility (mole fraction) (in ethanol, 303.15 K): 0.00672
- solubility (mole fraction) (in ethanol, 308.15 K): 0.00821
- solubility (mole fraction) (in ethanol, 313.15 K): 0.00984
- solubility (mole fraction) (in ethanol, 318.15 K): 0.0116
- solubility (mole fraction) (in ethyl acetate, 278.15 K): 0.0404
- solubility (mole fraction) (in ethyl acetate, 283.15 K): 0.0463
- solubility (mole fraction) (in ethyl acetate, 288.15 K): 0.0538
- solubility (mole fraction) (in ethyl acetate, 293.15 K): 0.0619
- solubility (mole fraction) (in ethyl acetate, 298.15 K): 0.0721
- solubility (mole fraction) (in ethyl acetate, 303.15 K): 0.0842
- solubility (mole fraction) (in ethyl acetate, 308.15 K): 0.1
- solubility (mole fraction) (in ethyl acetate, 313.15 K): 0.119
- solubility (mole fraction) (in ethyl acetate, 318.15 K): 0.142
- solubility (mole fraction) (in isopropanol, 278.15 K): 0.00162
- solubility (mole fraction) (in isopropanol, 283.15 K): 0.00196
- solubility (mole fraction) (in isopropanol, 288.15 K): 0.00246
- solubility (mole fraction) (in isopropanol, 293.15 K): 0.00304
- solubility (mole fraction) (in isopropanol, 298.15 K): 0.00374
- solubility (mole fraction) (in isopropanol, 303.15 K): 0.0046
- solubility (mole fraction) (in isopropanol, 308.15 K): 0.00572
- solubility (mole fraction) (in isopropanol, 313.15 K): 0.00708
- solubility (mole fraction) (in isopropanol, 318.15 K): 0.00877
- solubility (mole fraction) (in methanol, 278.15 K): 0.0032
- solubility (mole fraction) (in methanol, 283.15 K): 0.0037
- solubility (mole fraction) (in methanol, 288.15 K): 0.00448
- solubility (mole fraction) (in methanol, 293.15 K): 0.00541
- solubility (mole fraction) (in methanol, 298.15 K): 0.00652
- solubility (mole fraction) (in methanol, 303.15 K): 0.00788
- solubility (mole fraction) (in methanol, 308.15 K): 0.00955
- solubility (mole fraction) (in methanol, 313.15 K): 0.0115
- solubility (mole fraction) (in methanol, 318.15 K): 0.0135
- solubility (mole fraction) (in n-propanol, 278.15 K): 0.00227
- solubility (mole fraction) (in n-propanol, 283.15 K): 0.00271
- solubility (mole fraction) (in n-propanol, 288.15 K): 0.0033
- solubility (mole fraction) (in n-propanol, 293.15 K): 0.00407
- solubility (mole fraction) (in n-propanol, 298.15 K): 0.00505
- solubility (mole fraction) (in n-propanol, 303.15 K): 0.00619
- solubility (mole fraction) (in n-propanol, 308.15 K): 0.00758
- solubility (mole fraction) (in n-propanol, 313.15 K): 0.00908
- solubility (mole fraction) (in n-propanol, 318.15 K): 0.0108
